# Reference: patent US7211587B2, “Quinoline derivatives and quinazoline derivatives having azolyl group” (Kirin Beer Kabushiki Kaisha, priority 2001, dated 2007)
# Assays:
# [1] = tested on: Human pulmonary carcinoma cells (LC-6); test: Antitumor activity against human pulmonary carcinoma cells (LC-6) transplanted into nude mice; format: in vivo; details: LC-6 in nude mice, oral 20 mg/kg once a day for 9 days; for inhibition in vivo at 20 mg/kg: Mus musculus, 216 h, read-out: TGIR (tumor growth inhibition rate)
# Procedure: Human pulmonary carcinoma cells (LC-6) (obtained from Central Laboratories for Experimental Animals) were transplanted into nude mice. When the tumor volume became about 100 mm^3, the mice were grouped so that each group consisted of four mice and the average tumor volume was even among the groups. A test compound was orally administered at a dose of 20 mg/kg to the test groups every day once a day for 9 days, while only a vehicle was administered to a control group in the manner as in the test groups. The tumor growth inhibition rate (TGIR) was calculated as follows: The tumor growth inhibition rate (TGIR)=(1−TX/CX)×100 wherein CX represents the volume of tumor at day X for the control group when the tumor volume at the first day of the administration was presumed to be 1; and TX represents the tumor volume for test compound administration groups.
# human KDR = target: T1, human KDR (Homo sapiens, UniProt P35968); test: Inhibitory activity against KDR phosphorylation by ELISA (VEGF-stimulated NIH 3T3 cells expressing human KDR); format: cell-based; details: VEGF 100 ng/ml, compound 1 hr, read-out: IC50 (inhibition of KDR phosphorylation)
# T1 construct: expressed in transfected cells; host or cells: NIH 3T3 cells (mouse fibroblasts) stably expressing human KDR
# Procedure: The harvested cells were inoculated into wells of a collagen-type one-coat 96-well flat-bottom plate, each containing the same medium, in an amount of 1.5×10^4 per well, followed by cultivation at 37° C. overnight. The medium was then replaced by a DMEM medium containing 0.1% fetal calf serum. A solution of a test compound in dimethyl sulfoxide was added to each well, and the cultivation was continued at 37° C. for additional one hr. A human recombinant vascular endothelial growth factor (hereinafter abbreviated to “VEGF”) was added to a final concentration of 100 ng/ml, and the stimulation of cells was carried out at 37° C. for 2 min. The medium was removed, the cells were washed with phosphate buffered saline (pH 7.4), and 50 μl of a solubilization buffer (20 mM HEPES (pH 7.4), 150 mM NaCl, 0.2% Triton X-100, 10% glycerol, 5 mM sodium orthovanadylate, 5 mM disodium ethylenediaminetetraacetate, and 2 mM Na4P2O7) was then added thereto. The mixture was shaken at 4° C. for 2 hr to prepare a cell extract.
# Separately, phosphate buffered saline (50 μl, pH 7.4) containing 5 μg/ml of an anti-phospho-tyrosine antibody (PY20; purchased from Transduction Laboratories) was added to a microplate for ELISA (Maxisorp; purchased from NUNC), followed by standing at 4° C. overnight to form a solid phase on the wells. After washing of the plate, 300 μl of a blocking solution was added, followed by standing at room temperature for 2 hr to perform blocking. After washing, the whole quantity of the cell extract was transferred to the wells, and the plate was then allowed to stand at 4° C. overnight. After washing, an anti-KDR antibody (purchased from Santa Cruz) was allowed to react at room temperature for one hr, and, after washing, a peroxidase-labeled anti-rabbit Ig antibody (purchased from Amersham) was allowed to react at room temperature for one hr. After washing, a chromophoric substrate for peroxidase (purchased from Sumitomo Bakelite Co., Ltd.) was added thereto to initiate a reaction. After a suitable level of color development, a reaction termination solution was added to stop the reaction, and the absorbance at 450 nm was measured with a microplate reader. The KDR phosphorylation activity for each well was determined by presuming the absorbance with the addition of VEGF and without the addition of the medicament to be 100% KDR phosphorylation activity and the absorbance without the addition of the medicament and VEGF to be 0% KDR phosphorylation activity.
# T1 sequence (P35968 20-1356): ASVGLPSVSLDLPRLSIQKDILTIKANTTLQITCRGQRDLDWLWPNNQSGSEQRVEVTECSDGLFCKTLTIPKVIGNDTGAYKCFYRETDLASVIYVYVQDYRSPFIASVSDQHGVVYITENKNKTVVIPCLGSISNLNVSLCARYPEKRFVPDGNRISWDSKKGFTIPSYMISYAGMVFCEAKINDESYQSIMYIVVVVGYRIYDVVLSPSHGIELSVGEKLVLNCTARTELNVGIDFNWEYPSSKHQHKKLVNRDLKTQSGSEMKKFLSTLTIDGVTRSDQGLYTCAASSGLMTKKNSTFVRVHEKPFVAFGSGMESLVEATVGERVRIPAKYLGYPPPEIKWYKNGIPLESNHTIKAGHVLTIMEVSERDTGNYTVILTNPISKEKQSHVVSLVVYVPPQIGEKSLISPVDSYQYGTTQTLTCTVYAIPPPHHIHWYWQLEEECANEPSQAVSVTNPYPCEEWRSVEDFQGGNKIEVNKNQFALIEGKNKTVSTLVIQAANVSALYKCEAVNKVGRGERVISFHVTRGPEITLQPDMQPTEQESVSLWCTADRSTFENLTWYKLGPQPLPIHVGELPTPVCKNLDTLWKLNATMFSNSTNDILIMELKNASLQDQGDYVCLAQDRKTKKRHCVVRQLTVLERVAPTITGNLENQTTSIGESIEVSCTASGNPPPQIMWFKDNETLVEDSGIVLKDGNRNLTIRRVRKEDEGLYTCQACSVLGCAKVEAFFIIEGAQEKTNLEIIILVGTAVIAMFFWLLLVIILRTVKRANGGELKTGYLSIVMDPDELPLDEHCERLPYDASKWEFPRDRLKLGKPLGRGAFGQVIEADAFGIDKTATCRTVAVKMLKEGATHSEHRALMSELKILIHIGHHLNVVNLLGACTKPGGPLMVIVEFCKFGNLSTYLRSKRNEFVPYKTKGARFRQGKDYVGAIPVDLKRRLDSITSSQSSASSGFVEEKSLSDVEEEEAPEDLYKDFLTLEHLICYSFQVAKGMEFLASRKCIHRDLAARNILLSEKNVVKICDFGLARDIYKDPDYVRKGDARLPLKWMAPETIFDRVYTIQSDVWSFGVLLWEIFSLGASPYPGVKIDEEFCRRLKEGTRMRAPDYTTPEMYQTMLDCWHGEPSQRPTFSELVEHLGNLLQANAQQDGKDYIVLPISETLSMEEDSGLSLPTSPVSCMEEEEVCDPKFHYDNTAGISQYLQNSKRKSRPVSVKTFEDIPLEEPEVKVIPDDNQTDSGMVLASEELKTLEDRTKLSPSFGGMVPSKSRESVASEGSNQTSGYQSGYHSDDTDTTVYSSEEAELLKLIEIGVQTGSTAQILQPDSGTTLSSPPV
IC50 (human KDR),Compound,inhibition in vivo at 20 mg/kg [1],TGIR (tumor growth inhibition rate) [1]
< 1 nM,"COc1cc2nccc(Oc3ccc(NC(=O)Nc4ccon4)cc3F)c2cc1OC [Ex. 3, N-{4-[(6,7-Dimethoxy-4-quinolyl)oxy]-3-fluorophenyl}-N′-(3-isoxazolyl)urea]",39.5%,–
< 1 nM,"COc1cc2nccc(Oc3ccc(NC(=O)Nc4cc(C)no4)c(Cl)c3)c2cc1OC [Ex. 5, N-{2-Cloro-4-[(6,7-dimethoxy-4-quinolyl)oxy]phenyl}-N′-(3-methyl-5-isoxazolyl)urea]",–,29.5%
< 1 nM,"COc1cc2nccc(Oc3ccc(NC(=O)Nc4cc(C)no4)c(F)c3)c2cc1OC [Ex. 6, N-{4-[(6,7-Dimethoxy-4-quinolyl)oxy]-2-fluorophenyl}-N′-(3-methyl-5-isoxazolyl)urea]",29.3%,–
0.2 nM,"COc1cc2nccc(Oc3ccc(NC(=O)Nc4cc(C)on4)c(F)c3)c2cc1OC [Ex. 9, N-{4-[(6,7-Dimethoxy-4-quinolyl)oxy]-2-fluorophenyl}-N′-(5-methyl-3-isoxazolyl)urea]",63.5%,–
1.5 nM,"CCc1nnc(NC(=O)Nc2ccc(Oc3ccnc4cc(OC)c(OC)cc34)c(F)c2)s1 [Ex. 64, N-{4-[(6,7-Dimethoxy-4-quinolyl)oxy]-3-fluorophenyl}-N′-(5-ethyl-1,3,4-thiadiazol-2-yl)urea]",–,–
< 1 nM,"CCc1nnc(NC(=O)Nc2ccc(Oc3ccnc4cc(OC)c(OC)cc34)cc2Cl)s1 [Ex. 65, N-{2-Chloro-4-[(6,7-dimethoxy-4-quinolyl)oxy]phenyl}-N′-(5-ethyl-1,3,4-thiadiazol-2-yl)urea]",–,–
3.7 nM,"CCc1nnc(NC(=O)Nc2ccc(Oc3ccnc4cc(OC)c(OC)cc34)c(Cl)c2)s1 [Ex. 66, N-{3-Chloro-4-[(6,7-dimethoxy-4-quinolyl)oxy]phenyl}-N′-(5-ethyl-1,3,4-thiadiazol-2-yl)urea]",–,–
2.4 nM,"COc1cc2nccc(Oc3ccc(NC(=O)Nc4nnc(C5CC5)s4)c(Cl)c3)c2cc1OC [Ex. 67, N-{2-Chloro-4-[(6,7-dimethoxy-4-quinolyl)oxy]phenyl}-N′-(5-cyclopropyl-1,3,4-thiadiazol-2-yl)urea]",–,–
18 nM,"COc1cc2nccc(Oc3ccc(NC(=O)Nc4nnc(C5CC5)s4)cc3Cl)c2cc1OC [Ex. 68, N-{3-Chloro-4-[(6,7-dimethoxy-4-quinolyl)oxy]phenyl}-N′-(5-cyclopropyl-1,3,4-thiadiazol-2-yl)urea]",–,–
2.2 nM,"CCSc1nnc(NC(=O)Nc2ccc(Oc3ccnc4cc(OC)c(OC)cc34)cc2F)s1 [Ex. 70, N-{4-[(6,7-Dimethoxy-4-quinolyl)oxy]-2-fluorophenyl}-N′-[5-(ethylsulfanyl)-1,3,4-thiadiazol-2-yl]urea]",–,–
3.1 nM,"CCSc1nnc(NC(=O)Nc2ccc(Oc3ccnc4cc(OC)c(OC)cc34)c(C)c2C)s1 [Ex. 71, N-{4-[(6,7-Dimethoxy-4-quinolyl)oxy]-2,3-dimethylphenyl}-N′-[5-(ethylsulfanyl)-1,3,4-thiadiazol-2-yl]urea]",–,–
2.9 nM,"COc1cc2nccc(Oc3ccc(NC(=O)Nc4nnc(C(F)(F)F)s4)c(Cl)c3)c2cc1OC [Ex. 72, N-{2-Chloro-4-[(6,7-dimethoxy-4-quinolyl)oxy]phenyl}-N′-[5-(trifluoromethyl)-1,3,4-thiadiazol-2-yl]urea]",–,–
21 nM,"COc1cc2nccc(Oc3ccc(NC(=O)Nc4nnc(C(F)(F)F)s4)cc3Cl)c2cc1OC [Ex. 73, N-{3-Chloro-4-[(6,7-dimethoxy-4-quinolyl)oxy]phenyl}-N′-[5-(trifluoromethyl)-1,3,4-thiadiazol-2-yl]urea]",–,–
3 nM,"COc1cc2nccc(Oc3ccc(NC(=O)Nc4nnc(C(C)(C)C)s4)c(F)c3)c2cc1OC [Ex. 74, N-[5-(Tert-butyl)-1,3,4-thiadiazol-2-yl]-N′-{4-[(6,7-dimethoxy-4-quinolyl)oxy]-2-fluorophenyl}urea]",–,–
4.5 nM,"COc1cc2nccc(Oc3ccc(NC(=O)Nc4nnc(C(C)(C)C)s4)c(C)c3C)c2cc1OC [Ex. 75, N-[5-(Tert-butyl)-1,3,4-thiadiazol-2-yl]-N′-{4-[(6,7-dimethoxy-4-quinolyl)oxy]-2,3-dimethylphenyl}-urea]",–,–
